Test results taken from patent EP2272817A1, “PAI-1 INHIBITOR” (Institute of Medicinal Molecular Design, Inc., priority 2008, dated 2009).

Target: recombinant human PAI-1 (Homo sapiens, UniProt P05121)
Assay: Test Example 2: Human PAI-1 Inhibitory Activity (pH 7.4 HEPES buffer, 10 minutes incubation with two-chain tPA)
Type: biochemical
Parameters: purchased Molecular Innovations, Inc
Conditions: read-out: Inhibition Rate of PAI-1 Activity (%)
Protocol: 0.1 M HEPES, 0.1 M NaCl. 1 mM EDTA. 0.1 % Polyethylene glycol 8,000 (Hampton Research Corporation),
2 mM Dimethyldecylphoshine oxide [Apo-10] (Fluka Corporation)

recombinant human PAI-1, sequence (P05121 24-402): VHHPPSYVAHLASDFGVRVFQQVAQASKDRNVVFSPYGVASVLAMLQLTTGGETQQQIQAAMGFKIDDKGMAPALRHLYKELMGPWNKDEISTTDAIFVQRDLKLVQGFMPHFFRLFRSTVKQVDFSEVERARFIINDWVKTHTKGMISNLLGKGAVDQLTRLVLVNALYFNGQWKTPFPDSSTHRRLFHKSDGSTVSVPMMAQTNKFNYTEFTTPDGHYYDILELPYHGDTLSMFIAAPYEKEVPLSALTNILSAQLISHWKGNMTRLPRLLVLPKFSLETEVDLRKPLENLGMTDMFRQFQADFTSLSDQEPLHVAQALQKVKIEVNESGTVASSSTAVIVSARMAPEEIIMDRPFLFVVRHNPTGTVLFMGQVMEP

Compound | inhibition at 0.1 µM [%] | inhibition at 0.3 µM [%] | inhibition at 1 µM [%] | inhibition at 3 µM [%] | inhibition at 10 µM [%] | inhibition at 25 µM [%]
CC(C)(C)c1ccc(Oc2cc(-c3cc(Cl)ccc3Cl)ccc2CCC(=O)O)cc1 [Compound 484] | 0 | 7 | 73 | > 99 |  | 
CC(C)(C)c1ccc(COc2cc(-c3ccc(OC(F)(F)F)cc3)ccc2OCC(=O)O)cc1 [Compound 304] | 3 | 1 | 23 | 99 |  | 
CC(C)(C)c1ccc(Oc2cc(-c3ccc4ccccc4c3)ccc2/C=C/C(=O)O)cc1 [Compound 469] | 4 | 22 | 96 | > 99 |  | 
CCCCCCC(Oc1cc(-c2ccc(OC(F)(F)F)cc2)ccc1Oc1ccccc1)C(=O)O (stereo not shown) [Compound 322] | 0 | 4 | 69 | 92 |  | 
CC(C)(C)c1ccc(COc2ccc(NS(=O)(=O)c3ccc(OC(F)(F)F)cc3)cc2CCC(=O)O)cc1 [Compound 415] |  |  | 41 | 98 | > 99 | > 99
CC(C)(C)c1ccc(Oc2cc(-c3cc(Cl)ccc3Cl)ccc2/C=C/C(=O)O)cc1 [Compound 483] | 0 | 8 | 76 | > 99 |  | 
Cc1cccc(-c2ccc(Oc3ccc(C(C)(C)C)cc3)c(OCC(=O)O)c2)c1 [Compound 316] | 10 | 8 | 28 | 84 |  | 
Cc1cc(C)cc(Oc2cc(-c3ccc(C(C)(C)C)cc3)ccc2/C=C/C(=O)O)c1 [Compound 494] | 9 | 24 | 87 | 92 |  | 
CCCCc1ccc(-c2ccc(OCC(=O)O)c(Oc3ccc(C(C)(C)C)cc3)c2)cc1 [Compound 443] | 7 | 8 | 76 | > 99 |  | 
CC(C)(C)c1ccc(-c2ccc(OCC(=O)O)c(Oc3cccc(C(C)(C)C)c3)c2)cc1 [Compound 465] | 10 | 17 | 87 | 98 |  | 
CCCCCOc1ccc(-c2cccc(C)c2)cc1N(CCCCc1ccccc1)C(=O)C(=O)O [Compound 379] | 14 | 17 | 78 | 92 |  | 
O=C(O)COc1ccc(-c2ccc(OC(F)(F)F)cc2)cc1OCCCCc1ccccc1 [Compound 337] | 2 | 8 | 19 | 97 |  | 
CCCCCCCOc1ccc(N(CCCCc2ccccc2)C(=O)C(=O)O)cc1-c1ccc(OC(F)(F)F)cc1 [Compound 394] | 13 | 69 | 98 | > 99 |  | 
O=C(O)C(=O)N(CCCCc1ccccc1)c1cc(-c2ccc(OC(F)(F)F)cc2)ccc1OCCCCC(F)(F)F [Compound 381] | 12 | 13 | 48 | > 99 |  | 
CCCCOc1ccc(-c2ccc(OC(F)(F)F)cc2)cc1C=CC(=O)O [Compound 405] |  |  | 14 | 63 | > 99 | 95
CC(C)(C)c1ccc(Oc2cc(-c3ccccc3OC(F)(F)F)ccc2/C=C/C(=O)O)cc1 [Compound 466] | 4 | 9 | 88 | > 99 |  | 
CCCCC(CC(=O)O)c1cc(-c2ccc(OC(F)(F)F)cc2)ccc1Oc1ccc(C(C)(C)C)cc1 (stereo not shown) [Compound 422] | 12 | 24 | 72 | > 99 |  | 
CC(C)(C)c1cccc(Oc2cc(-c3ccc(OC(F)(F)F)cc3)ccc2OCC(=O)O)c1 [Compound 436] | 3 | 19 | 63 | > 99 |  | 
CCCCOc1ccc(-c2ccc(OC(F)(F)F)cc2)cc1CCC(=O)O [Compound 407] |  |  | 14 | 41 | > 99 | 98
CC(C)(C)c1ccc(Oc2cc(-c3ccc4ccccc4c3)ccc2CCC(=O)O)cc1 [Compound 470] | 3 | 16 | 87 | > 99 |  | 
CC(C)(C)c1ccc(Oc2cc(-c3cccc(C(F)(F)F)c3)ccc2OCC(=O)O)cc1 [Compound 315] | 13 | 16 | 60 | > 99 |  | 

Next, values leading:

inhibition at 0.1 µM [%] | inhibition at 0.3 µM [%] | inhibition at 1 µM [%] | inhibition at 3 µM [%] | inhibition at 10 µM [%] | inhibition at 25 µM [%] | Compound
18 | 29 | 94 | > 99 |  |  | CC(C)(C)c1ccc(Sc2cc(-c3ccc(OC(F)(F)F)cc3)ccc2/C=C\C(=O)O)cc1 [Compound 529]
0 | 12 | 87 | 98 |  |  | CC(C)(C)c1ccc(Oc2cc(Oc3ccc(OC(F)(F)F)cc3)ccc2OCC(=O)O)cc1 [Compound 538]
14 | 30 | 45 | 91 |  |  | CC(C)(C)c1ccc(Oc2cc(-c3ccc(OC(F)(F)F)cc3)ccc2N(CCCCc2ccccc2)C(=O)C(=O)O)cc1 [Compound 635]
16 | 57 | 94 | 93 |  |  | CCCCC(C(=O)O)N(Cc1ccc(C(C)(C)C)cc1)c1ccc(-c2ccc(OC(F)(F)F)cc2)cc1 (stereo not shown) [Compound 642]
23 | 22 | 84 | > 99 |  |  | CC(C)(C)c1ccc(C(=O)c2cc(-c3ccc(OC(F)(F)F)cc3)ccc2OCC(=O)O)cc1 [Compound 549]
 |  | 43 | 98 | > 99 | 95 | CC(C)(C)c1ccc(-c2ccc(CN(C(=O)C(=O)O)c3ccc(OC(F)(F)F)cc3)cc2)cc1 [Compound 615]
6 | 8 | 49 | > 99 |  |  | O=C(O)CCc1ccc(-c2ccc(OC(F)(F)F)cc2)cc1OC(c1ccccc1)c1ccccc1 [Compound 507]
0 | 8 | 84 | > 99 |  |  | CC(C)c1ccc(Oc2cc(-c3ccc(OC(F)(F)F)cc3)ccc2CCC(=O)O)cc1 [Compound 510]
0 | 0 | 15 | 74 |  |  | COc1ccc(-c2ccc(OC(F)(F)F)cc2)cc1N(CCCCc1ccccc1)C(=O)C(=O)O [Compound 651]
 |  | 40 | > 99 | > 99 | 90 | CC(C)(C)c1ccc(CN(C(=O)C(=O)O)c2ccc(N3CCN(c4ccc(OC(F)(F)F)cc4)CC3)cc2)cc1 [Compound 628]
